We go through one compound from US5153128A, “Heat-resistant β-galactosyltransferase, its production process and its use” (Suntory Limited, priority 1990, dated 1992).

The experiment concerns the target T1, heat-resistant β-galactosyltransferase produced by Saccharopolyspora rectivirgula SAM 1400 (Saccharopolyspora rectivirgula, UniProt Q9ZBD1).
T1 construct: about 140 kDa by gel filtration
As to the kind of experiment: Inhibitors: residual activity of the enzyme in the presence of compounds (Table 3). Type of experiment: biochemical. As to conditions: enzyme in presence of the compound; compound concentration not given.

T1 sequence (Q9ZBD1 entry or part of it, change not shown): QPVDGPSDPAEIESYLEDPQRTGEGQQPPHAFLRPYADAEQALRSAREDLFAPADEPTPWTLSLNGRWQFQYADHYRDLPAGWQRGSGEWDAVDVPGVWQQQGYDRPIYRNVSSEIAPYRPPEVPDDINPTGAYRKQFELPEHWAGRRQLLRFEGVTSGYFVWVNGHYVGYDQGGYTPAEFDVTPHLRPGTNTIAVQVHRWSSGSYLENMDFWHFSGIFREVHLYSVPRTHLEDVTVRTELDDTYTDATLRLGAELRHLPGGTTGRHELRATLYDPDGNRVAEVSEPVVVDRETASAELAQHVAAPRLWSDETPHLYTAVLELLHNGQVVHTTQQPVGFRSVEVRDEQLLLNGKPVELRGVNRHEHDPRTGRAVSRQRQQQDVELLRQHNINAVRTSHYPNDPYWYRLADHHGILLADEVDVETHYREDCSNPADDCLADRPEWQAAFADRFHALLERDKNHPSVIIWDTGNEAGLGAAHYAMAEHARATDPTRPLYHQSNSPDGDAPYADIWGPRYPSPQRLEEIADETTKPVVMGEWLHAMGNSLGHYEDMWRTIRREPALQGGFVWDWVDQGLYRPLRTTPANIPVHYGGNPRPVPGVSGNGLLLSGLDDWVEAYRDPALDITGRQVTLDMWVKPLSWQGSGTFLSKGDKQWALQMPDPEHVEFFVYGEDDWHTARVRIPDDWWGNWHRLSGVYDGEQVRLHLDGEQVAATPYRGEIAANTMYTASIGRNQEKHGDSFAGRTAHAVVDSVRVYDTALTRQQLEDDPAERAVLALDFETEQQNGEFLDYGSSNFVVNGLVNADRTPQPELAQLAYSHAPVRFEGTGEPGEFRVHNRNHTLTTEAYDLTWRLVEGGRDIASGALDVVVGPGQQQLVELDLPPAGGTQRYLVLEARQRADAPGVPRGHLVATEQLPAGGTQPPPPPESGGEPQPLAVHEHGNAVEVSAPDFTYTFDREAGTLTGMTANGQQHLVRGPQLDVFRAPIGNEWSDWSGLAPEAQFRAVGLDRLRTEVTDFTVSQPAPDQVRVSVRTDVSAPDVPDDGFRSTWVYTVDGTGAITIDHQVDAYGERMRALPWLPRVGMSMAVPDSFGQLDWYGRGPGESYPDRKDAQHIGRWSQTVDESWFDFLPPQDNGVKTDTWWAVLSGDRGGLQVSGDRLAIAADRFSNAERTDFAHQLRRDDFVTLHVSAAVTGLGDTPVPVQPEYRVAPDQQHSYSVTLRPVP

For the compound `OCCS` [2-Mercaptoethanol], the Residual activity is reported as 96%.
